Assay results from patent publication US5698401A, “Use of nuclear magnetic resonance to identify ligands to target biomolecules” (priority 1995, dated 1997).
Where two headings read alike, the source gives them in different places.

Legend:
[1] = target: T1, Stromelysin (Homo sapiens, UniProt P08254); assay: Inhibition of degradation (autolysis) of stromelysin; format: biochemical; settings: 500 mM
T1 construct: initiating methionine (N); made in house; host or cells: E. coli BL21(DE3)/pLysS, pET3d
T1 sequence (P08254 100-273): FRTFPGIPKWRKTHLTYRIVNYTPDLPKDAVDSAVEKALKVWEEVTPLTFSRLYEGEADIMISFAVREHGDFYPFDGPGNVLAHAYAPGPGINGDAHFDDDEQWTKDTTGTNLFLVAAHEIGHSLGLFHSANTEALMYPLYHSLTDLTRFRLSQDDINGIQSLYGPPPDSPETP
Description: Studies were performed to design new ligands that bound to the catalytic domain of stromelysin. Because stromelysin undergoes autolysis, an inhibitor was sought to block the degradation of stromelysin. That inhibitor would facilitate the screening of other potential ligands that bind to other sites on the enzyme.
A variety of hydroxamic acids of the general formula R-(CO)NHOH were screened for binding to stromelysin using the procedures set forth in Example 2.

[2] = Water solubility; format: physicochemical
[3] = target: T2, catalytic domain of stromelysin (Homo sapiens, UniProt P08254); assay: NMR binding (2D 15N/1H HSQC) to the catalytic domain of stromelysin
T2 construct: initiating methionine (N); made in house; host or cells: E. coli BL21(DE3)/pLysS, pET3d
T2 sequence (P08254 100-273): as above
Description: The catalytic domain of stromelysin was prepared in accordance with the procedures of Example 1. The protein solutions used in the screening assay contained the uniformly ^15 N-labeled catalytic domain of stromelysin (0.3 mM), acetohydroxamic acid (500 mM), CaCl2 (20 mM), and sodium azide (0.5%) in a H2 O/D2 O (9/1) TRIS buffered solution (50 mM, pH=7.0).
Two-dimensional ^15 N/^1 H NMR spectra were generated at 29° C. on a Bruker AMX500 NMR spectrometer equipped with a triple resonance probe and Bruker sample changer. The ^15 N/^1 H HSQC spectra were acquired as 80x1024 complex points using sweep widths of 2000 Hz (^15 N, t^1) and 8333 Hz (^1 H, t2). […] All NMR spectra were processed and analyzed on Silicon Graphics computers using in-house-written software. […]
Various biaryl compounds of structure I were tested for binding to stromelysin at differing concentrations. The ^15 N/^1 H spectra generated at each concentration were evaluated to quantify differences in the spectra as a function of compound concentration. A binding or dissociation constant (KD)was calculated, using standard procedures well known in the art, from those differences. […]
In a first study, binding constants were determined, both by the NMR method of the present invention, and by a prior an enzymatic assay. […] The KD values so obtained were compared to an inhibition constant KI as determined in an enzymatic assay. […]

[4] = target: T2, catalytic domain of stromelysin; assay: Enzymatic assay, cleavage of a fluorogenic substrate by stromelysin; format: biochemical
Description: The target molecule was the catalytic domain of stromelysin prepared in accordance with the procedures of Example 1. […] The KD values so obtained were compared to an inhibition constant KI as determined in an enzymatic assay.
The enzymatic assay measured the rate of cleavage of a fluorogenic substrate by following the fluorescence increase upon peptide cleavage which causes a separation between the fluorophore and quencher. Enzymatic activity was measured using a matrix of different concentrations of acetohydroxamic acid and biaryl compounds.
Individual compound concentration varied due to solubility and potency.
All NMR measurements were performed in the presence of 500 mM acetohydroxamic acid, except for the titration of acetohydroxamic acid itself. Dissociation constants were obtained from the dependence of the observed chemical shift changes upon added ligand. Inhibition constants were then obtained from the inhibition data using standard procedures.

inhibition of the degradation of the enzyme [1] | water solubility [2] | Structure (SMILES) | Kd [3] | Kd ([3]; Table 3, in the presence of 500 mM acetohydroxamic acid, read-out: NMR KD) | Ki [4]
inhibited the degradation of the enzyme | good water solubility | CC(=O)NO [Acetohydroxamic acid, acetohydroxamic acid] |  |  | 
 |  | c1ccc(-c2ccncc2)cc1 [Compound 7] | 200 µM | 170 µM | 320 µM
